According to PMC5374710, “Discovery of the first dual GSK3β inhibitor/Nrf2 inducer. A new multitarget therapeutic strategy for Alzheimer’s disease” (Scientific Reports, 2017):

Experiments:
primary rat glial cells = experiment: ROS production in LPS-stimulated primary glial cultures (H2DCFDA); format: cell-based; details: Glial cell, 24 h pre-incubation, 18 h co-incubation with LPS, 3 h with fluorescent dye, read-out: IC50 ROS reduction
Excerpt: Therefore, we envisaged the study of compounds 5a–t as potential anti-inflammatory agents. We used primary rat glial cells treated with lipopolysaccharide (LPS) to induce the production of nitrites and ROS as a model of glial activation. Nitrite production is directly proportional to the expression of the iNOS, that is over-expressed when LPS activates glial cells. ROS production is proportional to NOX activation after stimulation with LPS. Results are summarized in Table 2 as IC50s of nitrite production reduction and ROS production reduction. We have included sulforaphane as control in all experiments (see the Supporting Information).
Besides the increase in nitrite production, it is well known that LPS stimulation of microglia also induces the activation of NOX, which induces superoxide free radical production. In fact, this mechanism is synergistic with the expression of iNOS and the production of nitrites. In this respect, there is a body of evidence showing that NOX activation is a major contributor to ROS oxidative stress and neuronal death in AD[57][58]. […] In general, potency to reduce ROS production increased from ortho to para and meta as observed above.
(§1) Primary glial cells were cultured in bottom transparent 96-well black plates following standard protocol. Cells were pre-incubated with the corresponding compound at the selected concentrations, for 24 hours, and therafter, co-incubated with the corresponding compound and LPS (1 μM) during 18 h more. Then, treatments were removed and cells were loaded with the fluorescent probe 2′,7′-dichlorodihydrofluorescein diacetate (H2DCFDA) (10 μM) for 45 minutes in serum free glial culture medium. All experiments included cells treated with culture medium alone (basal). Cells were washed twice with culture medium and fluorescence intensity was recorded in a Fluostar Optima multiwall pate reader (BMG Labtech, Offenburg, Germany) at 485/520 nm as excitation and emission wavelengths respectively, each hour, during 3 hours period. Data were normalized with respect to basal conditions that were considered as 100%.
as §1, with “µM)” for “μM)”, “2',7'-dichlorodihydrofluorescein” for “2′,7′-dichlorodihydrofluorescein”
Mixed glial cultures were obtained from cerebral cortex of 2-5 day-old Sprague-Dawley rats. After removal of blood vessels and meninges, the forebrains were dissociated in DMEM/F12 medium. After mechanical dissociation, cells were plated (3x10^5 cells/ml) in DMEM/F12 medium with 20% fetal bovine serum (FBS) and 1 % penicillin/streptomycin (10,000 units), at 37 °C and in a 5 % CO2-supplemented air atmosphere. After 5 days, medium was substituted by DMEM/F12 medium with 10 % FBS. Cells were cultured for 7-10 days before treatment.

HepG2 cells = experiment: Hepatotoxicity in HepG2 cell line (MTT); details: 24 h
Procedure: Thus, it is relevant to study the potential neurotoxicity and hepatotoxicity of the novel dual GSK3β inhibitors-Nrf2 inducers 5a–t.
(§2) Viability was measured as MTT reduction in presence of increasing concentrations of derivatives. Values are expressed as LD50 calculated from dose-response curves of four different concentrations.
HepG2 cells were cultured according to supplier indications in EMEM supplemented with 10 % heat-inactivated FBS, 100 µg/mL streptomycin and 100 units/mL penicillin. Cells were maintained at 37 °C in humidified atmosphere of 95 % air and 5 % CO2. For experimental procedures, cells were cultured in 96-well plates at density of 1x10^5 cells/well. Treatments were performed in 1% FBS medium unless other concentration was specified. Cells were used from 4 up to 13 passages.
(§3) Cells were cultured in 48-well (SH-SY5Y, 1x10^5 cells per well) or 96-well plates (HepG2, 1x10^5 cells per well) for 24 h. […] Control cells were incubated with the same concentration of DMSO (0.1 % final concentration) without any drug.

Nrf2 = experiment: Nrf2-dependent luciferase reporter assay in AREc32 cell line; format: cell-based; details: Arec32, 24 h, AREc32 cells, read-out: CD (concentration required to double the luciferase reporter activity)
Procedure: Thereafter, we tested the ability of the compounds to induce the Nrf2 transcription factor. We used an Nrf2-dependent luciferase reporter assay in the AREc32 cell line[45]. Cells were cultured for 24 h and then treated with increasing concentrations of compounds 5a–t (0.3, 3, 10 and 30 μM), including the known inducer sulforaphane, containing an isothiocyanate motive as positive control.
AREc32 cells were plated in 96-well white plates (2 × 10^4 cells/well). After 24 h, cells were incubated with increasing concentrations of each compound in duplicate for 24 h. AREc32 cells express constitutively the plasmid pGL-8xARE that implements 8 copies of the EpRE sequences followed by luciferase reporter gen. Therefore, Nrf2 induction is related to the activation of EpRE sequences, expressing luciferase at the same extent as EpRE sequences are activated. The Luciferase Assay System (Promega E1500), was used according to provider protocol and luminescence was quantified in an Orion II microplate luminometer (Berthold, Germany). Fold induction of luciferase activity was normalized to basal conditions. Data are expressed as CD values, expressing the concentration required to double the luciferase activity. CD values are calculated from dose-response curves generated from fold induction of control conditions vs. inducer concentration and fitted by non-linear regression and data interpolated to 2-fold induction concentration.
Breast cancer cells stably transfected to express luciferase after EpRE sequences MCF-7/AREc32 named AREc32, were kindly provided by Dr. C. Roland Wolf (University of Dundee, UK).^14 AREc32 cells were maintained in DMEM with high glucose-glutamax, supplemented with 10 % FBS, 1 % penicillin-streptomycin (10,000 units), and geneticin (0.8 mg/ml G418) at 37 °C and in a 5 % CO2- air atmosphere.^14
AREc32 cells are constitutively transfected with the pGL-8xARE luciferase reporter gene, inserted after EpRE sequences. Thus, Nrf2 translocation to the nucleus induces the activation of the EpRE sequences, expressing their target phase II antioxidant genes, and expressing luciferase at the same extent.^15 AREc32 cells were plated in 96-well white plates (2X10^4 cells/well). After 24 h, cells were incubated with increasing concentrations of each compound in duplicate for 24 h (dissolved in DMSO to give a final 0.1 % vol/vol concentration of vehicle). Each plate included non-treated cells as basal luciferase expression and tBHQ (10 µM) as positive control. TBHQ is a potent Nrf2 inducer used as control in the development of the AREc32 cells.^14 Transfected clones are selected using G418. AREc32 cells express constitutively the plasmid pGL-8xARE that implements 8 copies of the EpRE sequences followed by a luciferase reporter gene. Therefore, the induction of Nrf2 is proportional to the activation of EpRE sequences, expressing luciferase at the same extent as EpRE sequences are activated. Luciferase production is then assessed by a bioluminescence assay. The Luciferase Assay System (Promega E1500), was used according to the Promega protocol and luminescence was quantified in an Orion II microplate luminometer (Berthold, Germany). Relative Light Units (RLU) were recorded for the contents of each well. Fold induction of luciferase activity was calculated by dividing the RLU obtained for the tests wells for each treatment by the average RLU obtained for the basal conditions. Data are expressed as CD values, expressing the concentration required to double the basal luciferase activity, used to quantify the Nrf2 induction potency. CD values are calculated from dose-response curves generated from fold induction of control conditions vs. inducer concentration and fitted by non-linear regression and data interpolated to value the 2-fold induction concentration, using GraphPad Prism software (San Diego, CA, USA).

SH-SY5Y cells = experiment: Cytotoxicity in SH-SY5Y neuroblastoma cell line (MTT); details: 24 h
Procedure: as §2, §3

| IC50 (primary rat glial cells) | EC50 (Nrf2) | SMILES | HepG2 LD50 (HepG2 cells) | SH-SY5Y LD50 (SH-SY5Y cells) |
| --- | --- | --- | --- | --- |
| 22.5 ± 7.78 µM | 25.2 ± 2.4 µM | Cc1n[nH]c2c1C(c1ccco1)C(C#N)=C(N)O2 (stereo not drawn) [Compound 5q, 6-Amino-4-(furan-2-yl)-3-methyl-2,4-dihydropyrano[2,3-c]pyrazole-5-carbonitrile] | > 100 µM | > 100 µM |
| 37 ± 4.32 µM | 14.6 ± 4 µM | Cc1n[nH]c2c1C(c1ccc(F)cc1)C(C#N)=C(N)O2 (stereo not drawn) [Compound 5h, 6-Amino-4-(4-fluorophenyl)-3-methyl-2,4-dihydropyrano[2,3-c]pyrazole-5-carbonitrile] | > 100 µM | > 100 µM |
| > 60 µM | 23.5 ± 3.2 µM | Cc1n[nH]c2c1C(c1ccccc1Cl)C(C#N)=C(N)O2 (stereo not drawn) [Compound 5i, 6-Amino-4-(2-chlorophenyl)-3-methyl-2,4-dihydropyrano[2,3-c]pyrazole-5-carbonitrile] | > 100 µM | > 100 µM |
